“Also recorded” adds a separate entry of the source.
Columns and labels:
[1] = tested on: human factor Xa; experiment: Neutralization of LMWHs by protamine in vitro (anti-Xa activity); format: biochemical; conditions: human plasma, protamine 0-90 μg/ml (FIG. 4B)
Description: Determination of the in vitro and ex vivo anti-Xa activity. Assays were based on a previously published method (Zhang, L. et al., J. Biol. Chem. 276, 42311-42321, 2001; Duncan et al., Biochim Biophys Acta 1671, 34-43, 2004). Briefly, human factor Xa (Enzyme Research Laboratories, South Bend, Ind., United States of America) was diluted to 50 Uml^−1 with PBS. The chromogenic substrates, S-2765 was from Diapharma (Westchester, Ohio, United States of America) and made up at 1 mgml^−1 in water. UFH (from US Pharmacopea), LOVENOX® (from local pharmacy) and LMWH Compounds 1 to 5) was dissolved in PBS at various concentrations (3 to 600 μgml^−1). The reaction mixture, which consisted of 20 μl of human plasma (Sigma-Aldrich, St. Louis, Mo., United States of America) and 8 μl of the solution containing the sample, was incubated at room temperature for 5 min. Factor Xa (100 μl) was then added. After incubating at room temperature for 4 min, 30 μl of S-2765 substrate was added. The absorbance of the reaction mixture was measured at 405 nm continuously for 5 min. The absorbance values were plotted against the reaction time. The initial reaction rates as a function of concentration were used to calculate the IC50 values.
The procedures followed a previous publication (Sundaram, M. et al., Proc. Natl. Acad. Sci. 100, 651-656, 2003). The LMWH Compounds and protamine chloride (Sigma-Aldrich) were dissolved in PBS. The concentrations of the LMWH samples for each Compound were different because each Compound has different IC50 value for the anti-Xa activity. […] The mixture (30 μl) was then subjected to anti-Xa activity measurement as described above.

[2] = Clearance of LMWHs in vivo: retention of 35S-labeled material in mouse liver; conditions: BALB/c mice, lateral tail vein injection, 12 min (FIG. 4A)
Description: The mouse experiment was approved by the University of Nebraska Animal Care and Use Committees. Five to six week old BALB/c mice (Harlan Laboratories, Indianapolis, Ind., United States of America) weighing 18-20 g were anesthetized in a small 34° C. chamber with a flow of oxygen containing 4% isoflurane. Once the mice were unconscious, they were individually placed on a heated pad with a nose cone fitted over their snout with a constant flow of oxygen containing 2% isoflurane. A specific amount of ^35S-labeled LMWH Compound, LMWH, or UFH was injected via the lateral tail vein using a 27G1/2 needle mounted on a 1 ml syringe. The labeled material was allowed to circulate in the blood for 12 min while the mouse lay unconscious. The abdominal cavity was exposed by incision and the liver was collected, washed, and weighed. Approximately 100 mg from each of the lobes was homogenized in 0.75 ml 1% NP-40 and then centrifuged at 12,000×g for 2 min to pellet insoluble material. The supernatant was then added to 4 ml scintillation fluid, mixed for 30 min by rocking and then radioactivity was assessed by a Beckman Coulter LS6500 scintillation counter. The data is presented as the percentage of CPM in total liver divided by total CPM injected±standard error of 3-5 mice per ligand.

[3] = tested on: mice; experiment: Mouse model of tail bleeding; format: in vivo; conditions: for effect of protamine on primary bleeding time after tail transection: protamine 15 mgkg^−1 i.v. (FIG. 4D)
Description: Under isoflurane anesthesia, mice (n=8 per group) were administered with PBS or Compound 5 (0.6 mgkg^−1) subcutaneously, 30 min later PBS or protamine (15 mgkg^−1) was administered via retro-orbital intravenous injection. After 5 minutes the distal part of the tail was transected at the constant diameter (1.5 mm), approximately 3-4 mm from the end. That results in both arterial and venous bleeding. […] The primary bleeding time was defined as the time to the first cessation of bleeding. Subsequently, time for each reinitiated bleeding was also recorded, and used to calculate total bleeding time. One mouse in Compound 5/protamine group received an inaccurate protamine injection and was excluded from the study. The blood collected in PBS was used to calculate total blood volume loss. Formic acid was added to samples (70:30 ratio) and absorbance was measured at 405 nm. A standard curve was generated by mixing […] of PBS with known amounts of blood. Statistical analysis between each group was performed by one-way ANOVA (GraphPad Prism Software, La Jolla, Calif., United States of America) followed by Bonferroni's multiple comparison test.

[4] = tested on: human factor Xa; experiment: Neutralization of LMWHs by protamine in mice, ex vivo anti-Xa activity in mouse plasma; conditions: C57BL/6J mice, s.c. test compound, protamine 15 mgkg^−1 i.v. 30 min later, plasma 5 min later (FIG. 4C)
Description: The study was performed on eight week old male C57BL/6J mice (Jackson Laboratories, Bar Harbor, Me., United States of America) (n=4 per group). The mouse experiments were approved by the UNC Animal Care and Use Committees and complied with National Institutes of Health guidelines. Under isoflurane anesthesia, mice were subcutaneously administered with PBS, UFH (3 mgkg^−1), LOVENOX® (3 mgkg^−1) or Compound 5 (0.6 mgkg^−1) 30 min prior to a protamine administration. […] To obtain mouse plasma, blood samples were centrifuged at 4,000 g for 15 min at 4° C. Mouse plasma was then used to determine anti-Xa activity. Ex vivo analysis of anti-Xa activity was done similar to the in vitro study described above. Briefly, plasma (10 μl) from different groups of mice was incubated with 80 nM human factor Xa (10 μl) at room temperature for 4 minutes and S-2765 (1 mgml^−1, 30 μl) was then added. The anti-Xa activity in the mouse plasma from the PBS injected mice was defined as 100%. Statistical analysis for multiple comparisons was performed by two-way ANOVA with Bonferroni's post-hoc test (GraphPad Prism Software, La Jolla, Calif., United States of America).

Structure (SMILES)	in vitro reversibility of anti-Xa activity by protamine [1]	retention in the liver [2]	effect of protamine on blood loss after tail transection ([3]; mice, Compound 5 0.6 mgkg^−1 s.c., protamine 15 mgkg^−1 i.v.)	effect of protamine on primary bleeding time after tail transection ([3]; mice, Compound 5 0.6 mgkg^−1 s.c.)	effect of protamine on primary bleeding time after tail transection ([3]; mice, Compound 5 0.6 mgkg^−1 s.c., listed as compound 5)	reversal of anti-Xa activity in an in vivo experiment ([3]; mouse tail bleeding model, protamine)	ex vivo reversibility of anti-FXa activity by protamine [4]
O=C(O)C1OC(OC2C(COS(=O)(=O)O)OC(OC3C(C(=O)O)OC(OC4C(COS(=O)(=O)O)OC(OC5C(C(=O)O)OC(Oc6ccc([N+](=O)[O-])cc6)C(O)C5O)C(NS(=O)(=O)O)C4O)C(OS(=O)(=O)O)C3O)C(NS(=O)(=O)O)C2OS(=O)(=O)O)C(O)C(O)C1OC1OC(COS(=O)(=O)O)C(O)C(O)C1NS(=O)(=O)O (stereo not drawn) [Compound 1]	Unlike Compounds 1, 2, and 3, Compound 4 was partially reversed by protamine	very low level of retention in the liver					
O=C(O)C1OC(OC2C(COS(=O)(=O)O)OC(OC3C(C(=O)O)OC(OC4C(COS(=O)(=O)O)OC(OC5C(C(=O)O)OC(OC6C(COS(=O)(=O)O)OC(OC7C(C(=O)O)OC(Oc8ccc([N+](=O)[O-])cc8)C(O)C7O)C(NS(=O)(=O)O)C6O)C(OS(=O)(=O)O)C5O)C(NS(=O)(=O)O)C4O)C(OS(=O)(=O)O)C3O)C(NS(=O)(=O)O)C2OS(=O)(=O)O)C(O)C(O)C1OC1OC(COS(=O)(=O)O)C(O)C(O)C1NS(=O)(=O)O (stereo not drawn) [Compound 2]	Unlike Compounds 1, 2, and 3, Compound 4 was partially reversed by protamine	very low level of retention in the liver					
O=C(O)C1OC(OC2C(COS(=O)(=O)O)OC(OC3C(C(=O)O)OC(OC4C(COS(=O)(=O)O)OC(OC5C(C(=O)O)OC(OC6C(COS(=O)(=O)O)OC(OC7C(C(=O)O)OC(OC8C(COS(=O)(=O)O)OC(OC9C(C(=O)O)OC(Oc%10ccc([N+](=O)[O-])cc%10)C(O)C9O)C(NS(=O)(=O)O)C8O)C(OS(=O)(=O)O)C7O)C(NS(=O)(=O)O)C6O)C(OS(=O)(=O)O)C5O)C(NS(=O)(=O)O)C4O)C(OS(=O)(=O)O)C3O)C(NS(=O)(=O)O)C2OS(=O)(=O)O)C(O)C(O)C1OC1OC(COS(=O)(=O)O)C(O)C(O)C1NS(=O)(=O)O (stereo not drawn) [Compound 3]	Unlike Compounds 1, 2, and 3, Compound 4 was partially reversed by protamine	retained in the liver; also recorded: internalized in mice liver					
CC(=O)NC1C(OC2C(C(=O)O)OC(OC3C(COS(=O)(=O)O)OC(OC4C(C(=O)O)OC(OC5C(COS(=O)(=O)O)OC(OC6C(C(=O)O)OC(OC7C(COS(=O)(=O)O)OC(OC8C(C(=O)O)OC(OC9C(COS(=O)(=O)O)OC(OC%10C(C(=O)O)OC(OC%11C(COS(=O)(=O)O)OC(OC%12C(C(=O)O)OC(Oc%13ccc([N+](=O)[O-])cc%13)C(O)C%12O)C(NS(=O)(=O)O)C%11O)C(OS(=O)(=O)O)C%10O)C(NS(=O)(=O)O)C9O)C(OS(=O)(=O)O)C8O)C(NS(=O)(=O)O)C7O)C(OS(=O)(=O)O)C6O)C(NS(=O)(=O)O)C5O)C(OS(=O)(=O)O)C4O)C(NS(=O)(=O)O)C3OS(=O)(=O)O)C(O)C2O)OC(COS(=O)(=O)O)C(O)C1O (stereo not drawn) [Compound 4]	partially reversed by protamine	retained in the liver; also recorded: internalized in mice liver					
CC(=O)NC1C(OC2C(C(=O)O)OC(OC3C(COS(=O)(=O)O)OC(OC4C(C(=O)O)OC(OC5C(COS(=O)(=O)O)OC(OC6C(C(=O)O)OC(OC7C(COS(=O)(=O)O)OC(OC8C(C(=O)O)OC(OC9C(COS(=O)(=O)O)OC(OC%10C(C(=O)O)OC(OC%11C(COS(=O)(=O)O)OC(OC%12C(C(=O)O)OC(Oc%13ccc([N+](=O)[O-])cc%13)C(O)C%12O)C(NS(=O)(=O)O)C%11O)C(OS(=O)(=O)O)C%10O)C(NS(=O)(=O)O)C9OS(=O)(=O)O)C(OS(=O)(=O)O)C8O)C(NS(=O)(=O)O)C7O)C(OS(=O)(=O)O)C6O)C(NS(=O)(=O)O)C5O)C(OS(=O)(=O)O)C4O)C(NS(=O)(=O)O)C3OS(=O)(=O)O)C(O)C2O)OC(COS(=O)(=O)O)C(O)C1O (stereo not drawn) [Compound 5]	same protamine reversibility as UFH and greater reversibility than LOVENOX®; also recorded: can be reversed by protamine	retained in the liver; also recorded: internalized in mice liver	reduced the blood loss	protamine shortened the primary bleeding time	significantly shortened the primary bleeding time	can be reversed	reversible

— patent US9951149B2, “Reversible heparin molecules and methods of making and using the same” (The University of North Carolina at Chapel Hill, priority 2013, dated 2018)
